One test has as its target human plasma kallikrein (Homo sapiens (Human), UniProt P03952). Nature of the test: Plasma kallikrein activity assay (chromogenic substrate S2302). Format: biochemical. The note with it: 2 nM kallikrein, 80 μM S2302, 30° C., pH 7.8; Cheng-Prusoff; values given as bins.
The subject of test [1] is patients with hereditary angioedema (HAE). The note with it: cited from earlier work.
The test system of test [2] is mouse model of middle cerebral artery occlusion (MCAO). The note with it: cited from earlier work.

human plasma kallikrein, sequence (P03952 whole entry, looked up): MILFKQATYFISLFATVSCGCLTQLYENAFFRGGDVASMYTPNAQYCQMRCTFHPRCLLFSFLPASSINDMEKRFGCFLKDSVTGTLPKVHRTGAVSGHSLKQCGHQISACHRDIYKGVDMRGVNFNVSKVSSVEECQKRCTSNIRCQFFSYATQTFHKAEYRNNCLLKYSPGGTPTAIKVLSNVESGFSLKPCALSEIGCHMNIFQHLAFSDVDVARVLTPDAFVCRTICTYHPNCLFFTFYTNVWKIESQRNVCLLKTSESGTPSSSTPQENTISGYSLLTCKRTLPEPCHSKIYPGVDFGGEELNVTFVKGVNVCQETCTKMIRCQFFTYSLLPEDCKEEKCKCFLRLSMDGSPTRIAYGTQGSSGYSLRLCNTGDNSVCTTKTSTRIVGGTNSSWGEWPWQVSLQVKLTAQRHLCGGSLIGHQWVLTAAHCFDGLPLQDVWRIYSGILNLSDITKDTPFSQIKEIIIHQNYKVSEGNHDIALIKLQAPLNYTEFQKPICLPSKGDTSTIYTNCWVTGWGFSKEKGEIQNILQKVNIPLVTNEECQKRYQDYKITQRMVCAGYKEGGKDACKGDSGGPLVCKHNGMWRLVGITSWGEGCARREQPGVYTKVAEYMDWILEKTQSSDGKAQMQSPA
human plasma kallikrein, sequence (P03952 whole entry partner, looked up): as the sequence (P03952 whole entry, looked up) above
Procedure for human plasma kallikrein: Plasma Kallikrein Activity Assay.
The effect of compounds of the invention on human plasma kallikrein activity was determined using the chromogenic substrates (DiaPharma Group, Inc., West Chester, Ohio, USA). In these experiments, 2 nM kallikrein (Enzyme Research Laboratories, South Bend, Ind., USA) was incubated with 80 μM S2302 (H-D-Pro-Phe-Arg-p-nitroaniline) in the absence or presence of increasing concentrations of compounds of the invention in a final volume of 200 μL Tris-HCl buffer (200 mM NaCl; 2.5 mM CaCl2; 50 mM Tris-HCl, pH 7.8).
Data were analyzed using SigmaPlot software (Systat Software, Inc., San Jose, Calif., USA) (Four Parameter Logistic Curve).

As a reminder, the Ki is a measure of affinity in units of concentration, obtained from inhibition or displacement. Read a high Ki as weaker binding. `N#Cc1cccc(C(N)(CCC2CC2)c2ccc(F)c(NC(=O)c3cc(C(F)(F)F)nn3-c3cccc(C(N)=O)c3)c2)c1` (single isomer, unassigned; (-)) [Compound 267c, (−)-N-(5-(1-amino-1-(3-cyanophenyl)-3-cyclopropylpropyl)-2-fluorophenyl)-1-(3-carbamoylphenyl)-3-(trifluoromethyl)-1H-pyrazole-5-carboxamide] showed a Ki on human plasma kallikrein greater than 100 nM. Consider ecallantide [DX-88], for which the “edema in patients with hereditary angioedema (HAE)” value in test [1] is on record as “alleviates edema”.

B1: C1-inhibitor: "a physiological inhibitor (C1-inhibitor)" (protein, UniProt P05155 23-500, looked up)
Plasma protease C1 inhibitor: NPNATSSSSQDPESLQDRGEGKVATTVISKMLFVEPILEVSSLPTTNSTTNSATKITANTTDEPTTQPTTEPTTQPTIQPTQPTTQLPTDSPTQPTTGSFCPGPVTLCSDLESHSTEAVLGDALVDFSLKLYHAFSAMKKVETNMAFSPFSIASLLTQVLLGAGENTKTNLESILSYPKDFTCVHQALKGFTTKGVTSVSQIFHSPDLAIRDTFVNASRTLYSSSPRVLSNNSDANLELINTWVAKNTNNKISRLLDSLPSDTRLVLLNAIYLSAKWKTTFDPKKTRMEPFHFKNSVIKVPMMNSKKYPVAHFIDQTLKAKVGQLQLSHNLSLVILVPQNLKHRLEDMEQALSPSVFKAIMEKLEMSKFQPTLLTLPRIKVTTSQDMLSIMEKLEFFDFSYDLNLCGLTEDPDLQVSAMQHQTVLELTETGVEAAAASAISVARTLLVFEVQQPFLFVLWDQQHKFPVFMGRVYDPRA
As for B1, in test [2], the infarct size result was “reduced”.

The values above are taken from patent US10633345B2, “Human plasma kallikrein inhibitors” (BioCryst Pharmaceuticals, Inc., priority 2014, dated 2020).
